From the NIST ThermoML archive (doi:10.1007/s10765-005-5585-3)
± gives the expanded uncertainty stated by the source.

Details: 101.33 kPa, Liquid; for mass density: UV imaging technique; for viscosity: oscillations around equilibria

Question: With `[Ir]` [iridium] as the compound, how does the mass density (2300 K) read?
Answer: The mass density was 19856 ± 400 kg/m3.

Question: And the mass density (2350 K)?
Answer: Its mass density is 19814 ± 400 kg/m3.

Question: What about the viscosity (2373 K) of the same compound?
Answer: The viscosity was 8.47 ± 0.85 mPa·s.

Question: What about the viscosity (2398 K) of the same compound?
Answer: The viscosity was 8.34 ± 0.83 mPa·s.

Question: And the mass density (2400 K)?
Answer: The mass density was 19771 ± 400 kg/m3.

Question: And the viscosity (2423 K)?
Answer: The viscosity was 8.21 ± 0.82 mPa·s.

Question: What about the viscosity (2448 K) of the same compound?
Answer: Its viscosity is 8.08 ± 0.81 mPa·s.

Question: And the mass density (2450 K)?
Answer: The mass density was 19729 ± 400 kg/m3.

Question: And the viscosity (2473 K)?
Answer: The viscosity was 7.97 ± 0.8 mPa·s.

Question: And the viscosity (2498 K)?
Answer: The viscosity was 7.85 ± 0.79 mPa·s.

Question: What about the mass density (2500 K) of the same compound?
Answer: The mass density was 19686 ± 390 kg/m3.

Question: And the viscosity (2523 K)?
Answer: Its viscosity is 7.74 ± 0.77 mPa·s.

Question: And the viscosity (2548 K)?
Answer: The viscosity was 7.63 ± 0.76 mPa·s.

Question: What about the mass density (2550 K) of the same compound?
Answer: The mass density was 19644 ± 390 kg/m3.

Question: What about the viscosity (2573 K) of the same compound?
Answer: The viscosity was 7.53 ± 0.75 mPa·s.

Question: And the viscosity (2598 K)?
Answer: Its viscosity is 7.42 ± 0.74 mPa·s.

Question: And the mass density (2600 K)?
Answer: The mass density was 19601 ± 390 kg/m3.

Question: What about the viscosity (2623 K) of the same compound?
Answer: Its viscosity is 7.33 ± 0.73 mPa·s.

Question: What about the viscosity (2648 K) of the same compound?
Answer: The viscosity was 7.23 ± 0.72 mPa·s.

Question: What about the mass density (2650 K) of the same compound?
Answer: The mass density was 19559 ± 390 kg/m3.

Question: What about the viscosity (2673 K) of the same compound?
Answer: Its viscosity is 7.14 ± 0.71 mPa·s.

Question: And the viscosity (2698 K)?
Answer: Its viscosity is 7.05 ± 0.71 mPa·s.

Question: And the mass density (2700 K)?
Answer: Its mass density is 19516 ± 390 kg/m3.

Question: What about the viscosity (2723 K) of the same compound?
Answer: Its viscosity is 6.97 ± 0.7 mPa·s.

Question: And the viscosity (2748 K)?
Answer: The viscosity was 6.88 ± 0.69 mPa·s.

Question: And the mass density (2750 K)?
Answer: Its mass density is 19474 ± 390 kg/m3.

Question: And the viscosity (2773 K)?
Answer: The viscosity was 6.8 ± 0.68 mPa·s.

Question: What about the mass density (2800 K) of the same compound?
Answer: Its mass density is 19431 ± 390 kg/m3.

Question: And the mass density (2850 K)?
Answer: The mass density was 19389 ± 390 kg/m3.

Question: And the mass density (2900 K)?
Answer: The mass density was 19346 ± 390 kg/m3.

Question: And the mass density (2950 K)?
Answer: The mass density was 19304 ± 390 kg/m3.

Question: What about the mass density (3000 K) of the same compound?
Answer: The mass density was 19261 ± 380 kg/m3.
